Four compounds from patent US4771070A (Warner-Lambert Company, priority 1986, dated 1988) can be followed below.

Structures are written as SMILES. Values after ≈ are worked out from the molar mass of the structure shown. Counter-ions that a name gives are not always drawn. Like-named read-outs stand apart in the source and are kept apart here.

Data set [1] is classed as physicochemical. How it is done: After addition of the base solution, a white suspension formed, and some material coagulated on the walls of the solution container.
The resulting solution was concentrated to a final volume of about 2 ml on a rotary evaporator and then diluted to 40 ml with water. Two-milliliter aliquots of this solution were added to each of several 6-ml vials.
The solution was concentrated in vacuo to remove methanol and diluted to 10 ml for lyophilization. The lyophilized solid is white and powdery.

Another data set concerns Alcaligenes viscolactis. Description: Antimicrobial activity of CL-1957A, paper disc growth inhibition zone. The data set is classed as cell-based. The note with it: ATCC21698, 16 h, ATCC 21698, Mycin medium, 500 μg/ml, read-out: Diameter of Inhibition Zone. How it is done:
(§1) The disc and inoculated medium were incubated for 16 hours at 37° C. and the diameter of the resulting growth inhibition zone, if any, was measured.

The test system of a further data set is Bacillus subtilis. Described as above. The data set is classed as cell-based. How it is done:
as §1

A further data set has as its system Branhamella catarrahalis. Described as above. Conditions: 16 h; PD 03596, CAP medium, 500 μg/ml; read-out: Diameter of Inhibition Zone. The format is cell-based. As to the method:
as §1

The test system of the next data set is Micrococcus luteus. The description is as above. The format is cell-based. Conditions: 16 h, PD 05064, PAS medium, read-out: Diameter of Inhibition Zone. As to the method: as §1
The test system of a further data set is Proteus vulgaris. The description is as above. Conditions: 16 h, PD 05062, PAS medium, read-out: Diameter of Inhibition Zone. The data set is classed as cell-based. How it is done: as §1
The subject of a further data set is Staphylococcus aureus. The description is as above. The note with it: 16 h, read-out: Diameter of Inhibition Zone; for zone of inhibition at 10 µg/mL: 10 μg/ml; for zone of inhibition at 500 µg/mL: 500 μg/ml; for zone of inhibition at 100 µg/mL: 100 μg/ml. The format is cell-based. How it is done:
as §1

The subject of the next data set is Xanthomonas phaseoli. Described as above. The format is cell-based. Conditions: 16 h, PD 06002, CMA medium, read-out: Diameter of Inhibition Zone. As to the method: as §1
A further data set has as its system P388 leukemia. Kind of data set: In vivo activity of CL-1957A against P388 leukemia in mice.
In data set [2] the test system is L1210 mouse leukemia cells. Description: Cytotoxicity of CL-1957A in vitro. The data set is classed as cell-based. Conditions: read-out: ID50 (the source's name). The text has this:
(§2) The ID50 values appear in Table XII.

For data set [3], the system named is human colon adenocarcinoma cells. Description: Cytotoxicity of CL-1957A in vitro. The data set is classed as cell-based. The note with it: read-out: ID50 (the source's name).
From the text: as §2

The test system of data set [4] is Ridgeway Osteogenic Sarcoma. Description: In vivo activity of CL-1957A against Ridgeway Osteogenic Sarcoma in mice. As to the method:
Male AKR mice were pooled, inoculated subcutaneously by trocar with 30-60 mg fragments of Ridgeway Osteogenic Sarcoma, repooled, and randomly distributed to treatment groups on Day 0.
Appropriate mice received intrapertioneal injections of the test compound dissolved in 0.9% sodium chloride solution on Days 2, 6, and 10, and then weekly thereafter. Tumors were measured on Days 24 and 35. The results are presented in Table XIII as % T/C (as defined below). % T/C values of less than 40 on Day 35 are considered active. [formula]

For a further data set, the system named is B16 Melanoma. Kind of data set: In vivo activity of CL-1957A against B16 Melanoma in mice. Conditions: ratio of median life span. The text has this:
The activity of the compound against B16 melanoma is presented in Table XIV in terms of % T/C values which represents the ratio of median life span in days of treated mice to untreated mice, expressed as a percentage.

The format of data set [5] is physicochemical. The note with it: for Percent Remaining After One Week: 168 h. How it is done:
The thin-film preparations which resulted were assayed for stability by comparing the purity of the film against a standard sample by HPLC techniques.

The next data set in a line: physchem. The data set is classed as physicochemical.

As usually defined, the amount remaining is what is left of the initial amount, in per cent.

On to `CCC(C=CC1OC(=O)C=CC1C)=CC(C)CC=CC(C)=CC(C)C(=O)C(C)C(O)C(C)CC(C)=CC(=O)O` (stereo not drawn) [CL-1957A triethylammonium salt], for which the solubility in water result in [1] is “soluble in water”.

For the compound `CCC(C=CC1OC(=O)C=CC1C)=CC(C)CC=CC(C)=CC(C)C(=O)C(C)C(O)C(C)CC(C)=CC(=O)O` (stereo not drawn) [CL-1957A, 19-(3,6-dihydro-3-methyl-6-oxo-2H-pyran-2-yl)-17-ethyl-6-hydroxy-3,5,7,9, 11,15-hexamethyl-8-oxo 2,10,12 16,18-nonadecapentaenoic acid], the zone of inhibition at 500 µg/mL in the data set on Alcaligenes viscolactis is 19 mm; in the data set on Branhamella catarrahalis, 30 mm; in the data set on Proteus vulgaris (500 μg/ml) it was 0 mm; in the data set on Staphylococcus aureus (PD 02482, PAS medium), 16 mm; in the data set with Staphylococcus aureus (PD 5045, AM-9 medium), 22 mm; with Staphylococcus aureus (PD 5045, AM-10 medium), 22 mm. In addition, the zone of inhibition at 500 µg/mL with Xanthomonas phaseoli (500 μg/ml) was 0 mm. Further, the zone of inhibition at 10 µg/mL stood at 0 mm in the data set with Bacillus subtilis (16 h, PD 04969, #169 medium, 10 μg/ml, read-out: Diameter of Inhibition Zone); 0 mm with Bacillus subtilis (ATCC6633, 16 h, read-out: Diameter of Inhibition Zone, ATCC 6633, Mycin medium, 10 μg/ml); 0 mm in the data set with Micrococcus luteus (10 μg/ml); 0 mm in the data set on Proteus vulgaris (10 μg/ml); 0 mm in the data set on Staphylococcus aureus (PD 02482, PAS medium); 0 mm in the data set on Staphylococcus aureus (PD 5045, AM-9 medium). Also, the zone of inhibition at 10 µg/mL in the data set with Staphylococcus aureus (PD 5045, AM-10 medium) came out at 0 mm; with Xanthomonas phaseoli (10 μg/ml) it was 0 mm. Further, the zone of inhibition at 100 µg/mL with Bacillus subtilis (ATCC6633, 16 h, read-out: Diameter of Inhibition Zone, ATCC 6633, #169 medium, 100 μg/ml) was determined as 16 mm; with Bacillus subtilis (ATCC6633, 16 h, read-out: Diameter of Inhibition Zone, ATCC 6633, Mycin medium, 100 μg/ml) it was 0 mm; in the data set with Micrococcus luteus (100 μg/ml), 0 mm; in the data set on Proteus vulgaris (100 μg/ml) it was 0 mm; in the data set on Staphylococcus aureus (PD 5045, AM-9 medium), 17 mm; in the data set on Staphylococcus aureus (PD 5045, AM-10 medium), 19 mm. Besides, the zone of inhibition at 100 µg/mL with Xanthomonas phaseoli (100 μg/ml) amounted to 0 mm. Moreover, the “% T/C” value is given as 118% with P388 leukemia (12.5 μg/kg/injection, Days 1-5, Test 1); 127% with P388 leukemia (25 μg/kg/injection, Days 1-5, Test 1); “Toxic” in the data set on P388 leukemia (100 μg/kg/injection, Days 1-5, Test 1); “Toxic” in the data set with P388 leukemia (100 μg/kg/injection, Days 1-5, Test 2); 14% in [4] (0.125 mg/kg/injection i.p. Days 2, 6, 10, then weekly, Day 24); 22% in data set [4] (0.125 mg/kg/injection i.p. Days 2, 6, 10, then weekly, Day 35, less than 40 considered active). Besides, the “% T/C” value in [4] (0.25 mg/kg/injection i.p. Days 2, 6, 10, then weekly, Day 24) was 15%; in data set [4] (0.25 mg/kg/injection i.p. Days 2, 6, 10, then weekly, Day 35, less than 40 considered active) it was 9%; in [4] (0.50 mg/kg/injection i.p. Days 2, 6, 10, then weekly, Day 24) it was 0%; in data set [4] (0.50 mg/kg/injection i.p. Days 2, 6, 10, then weekly, Day 35, less than 40 considered active), 0%; in the data set on B16 Melanoma (0.075 mg/kg/injection i.p. Days 1, 5, 9) it was 201%; in the data set on B16 Melanoma (0.60 mg/kg/injection i.p. Days 1, 5, 9) it was “Toxic”. In addition, the figures for the IC50 in data set [2] and in [3] were 0.118 ng/mL (≈ 0.218 nM) and 0.02 ng/mL (≈ 0.037 nM), respectively. Moreover, the “stability of ascorbate-containing thin-film preparation” value in data set [5] was “began to show some decomposition”. Moreover, the “stability of solid preparations of the pure compound” value in data set [5] is given as “insufficiently stable for pharmaceutical use”. The “stability of thin-film preparations” value in [5] is “not stable for periods of even one week”. In addition, the “Percent Remaining After One Week” value in data set [5] (solid cake from 1,1-dimethylethanol) is given as 56%; in [5] (thin film from 95% ethanol), 40%; in [5] (thin film from abs. ethanol) it was 60%. Also, the share remaining at 730 h in “physchem” (95% ethanol) amounted to 100%; in the data set “physchem” (absolute ethanol), 100%; in the data set “physchem” (dimethylacetamide) it was 95%; in “physchem” (dimethylsulfoxide) it was 93%; in the data set “physchem” (propylene glycol) it was 100%. The share remaining at 3650 h in the data set “physchem” (95% ethanol), in “physchem” (abs. ethanol) and in “physchem” (propylene glycol) was 100% throughout.

`CCC(C=CC1OC(=O)C=CC1C)=CC(C)CC=CC(C)=CC(C)C(=O)C(C)C(O)C(C)CC(C)=CC(=O)O` [N-methyl-D-glucamine salt]: in data set [1], the solubility in water entry is “soluble in water”.

For the compound `CCC(C=CC1OC(=O)C=CC1C)=CC(C)CC=CC(C)=CC(C)C(=O)C(C)C(O)C(C)CC(C)=CC(=O)O` (stereo not drawn) [calcium salt of CL-1957A], in [1], the solubility in ethanol result was “soluble in ethanol” and the solubility in water result is reported as “insoluble in water”.
